According to patent US20220282217A1, “COMPOSITIONS AND METHODS FOR PREPARING T CELL COMPOSITIONS AND USES THEREOF” (priority 2019, published 2022):
Like-named read-outs stand apart in the source and are kept apart here. Values belong to the compound of their own block, whether it stands above or below them. Where a SMILES comes first, the peptide text is derived from it.

Key:
HLA-A03.01 [1] = target: T1, HLA-A03.01 (Homo sapiens, UniProt P04439); assay: Class I MHC peptide binding affinity (displacement of radiolabeled reference peptide); conditions: allele A03.01, (nM))
HLA-A03.01 [2] = target: T1, HLA-A03.01; assay: Class I MHC peptide binding stability (pMHC-I dissociation, 125I-labeled light chain); set-up: made in house; host or cells: E. coli
HLA-A02.01 [3] = target: T2, HLA-A02.01 (Homo sapiens, UniProt P04439, D140Y/D185E/D98H/E176V/E277Q/G131W/G231S/I119V/I121R/I166T/I218V/N151K/N90K/P208A/P217A/Q86G/Q94H/R138H/R169H); assay: as above; conditions: allele A02.01
T2 construct: made in house; host or cells: E. coli

HLA-B08.01 = HLA-B08.01 (Homo sapiens, UniProt P01889, A93T/A95T/D138N/E176V/E187T/K202T/Q94N/R180D/S35A/V36M/Y33D/Y91F); assay: as above; conditions: Allele B08.01
HLA-A02.01 [4] = target: HLA-A02.01 (Homo sapiens, UniProt P04439, D140Y/D185E/D98H/E176V/E277Q/G131W/G231S/I119V/I121R/I166T/I218V/L300P/L318F/N151K/N90K/P208A/P217A/Q86G/Q94H/R138H/R169H/T345S); assay: Class I MHC peptide binding affinity (displacement of radiolabeled reference peptide); conditions: allele A02.01; read-out: Observed Affinity (IC50; (nM))
Summary of the method: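 MHC class I complexes were loaded with a radiolabeled reference peptide, then exposed to test peptides over a range of concentrations for 2 days. Reference peptide still bound to the complexes was quantified by size-exclusion gel filtration.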

HLA-A11.01 [5] = target: T3, HLA-A11.01 (Homo sapiens, UniProt P04439, A114D/F33Y/S129P); assay: Class I MHC peptide binding stability (pMHC-I dissociation, 125I-labeled light chain); conditions: HLA Allele A11.01; time for half of the complexes to dissociate at 37° C.
T3 construct: made in house; host or cells: E. coli

HLA-A11.01 [6] = target: HLA-A11.01 (Homo sapiens, UniProt P04439, A114D/D185E/E176A/F33Y/L180Q/S129P/T187R); assay: Class I MHC peptide binding affinity (displacement of radiolabeled reference peptide)
[7] = tested on: 293T cells transduced with GATA3 neoORF, expressing the HLA of interest; assay: Presentation of GATA3 neoantigens: HLA-eluted peptides by targeted MS/MS (PRM) (Table 14); format: cell-based, human; conditions: GATA3 neoORF transduced 293T cells expressing HLA-B*08:01 protein
Procedure: To assess whether antigens could be processed and presented from the larger polypeptide context, peptides eluted from HLA molecules isolated from cells expressing the genes of interest were analyzed by tandem mass spectrometry (MS/MS).
Between 50 and 700 million of the transduced cells expressing peptides encoded by the GATA3 neoORF sequence were cultured and peptides were eluted from HLA-peptide complexes using an acid wash. Eluted peptides were then analyzed by targeted MS/MS using PRM. Spectral comparison between peptides derived from GATA3 neoORF and corresponding synthetic peptides were performed to confirm each detection.

[8] = read-out: Observed Affinity (IC50
[9] = allele A11.01, read-out: Observed Affinity (IC50, (nM))

IC50 (HLA-A03.01 [1]; [8]): 7 nM
Stability (T1/2 (h)) (HLA-A03.01 [2]; allele A03.01): 13.5 h
SMILES: CC(C)[C@H](NC(=O)[C@@H](N)CCCCN)C(=O)N[C@@H](CO)C(=O)N[C@@H](CCCNC(=N)N)C(=O)N[C@@H](CCC(=O)O)C(=O)N[C@@H](CC(N)=O)C(=O)N[C@H](C(=O)N[C@@H](CO)C(=O)N1CCC[C@H]1C(=O)N[C@@H](CCCCN)C(=O)O)[C@@H](C)O (H-KVSRENTSPK-OH; N-terminus and C-terminus assumed)

SMILES: CSCC[C@H](NC(=O)[C@@H](NC(=O)[C@H](Cc1ccc(O)cc1)NC(=O)[C@H](C)NC(=O)[C@H](CCSC)NC(=O)[C@@H](NC(=O)[C@@H](N)Cc1ccc(O)cc1)C(C)C)C(C)C)C(=O)N[C@@H](C)C(=O)NCC(=O)O
Stability (T1/2 (h)) (HLA-A02.01 [3]): 2.5 h
Stability (T1/2 (h)) (HLA-B08.01): 1.2 h
IC50 (HLA-A02.01 [4]): 11500 nM

SMILES: CC(C)[C@H](N)C(=O)N[C@H](C(=O)NCC(=O)N[C@@H](C)C(=O)N[C@@H](CC(=O)O)C(=O)NCC(=O)N[C@H](C(=O)NCC(=O)N[C@@H](CCCCN)C(=O)O)C(C)C)C(C)C
Measured stability (HLA-A11.01 [5]): 3.4 h

IC50 (HLA-A03.01 [1]; [8]): 4.4 nM
IC50 (HLA-A11.01 [6]; [9]): 129 nM
SMILES: CC(C)C[C@H](NC(=O)[C@H](C)NC(=O)[C@@H]1CCCN1C(=O)[C@@H](NC(=O)[C@H](CCCCN)NC(=O)[C@H](CCCCN)NC(=O)[C@H](CC(C)C)NC(=O)[C@@H](N)CO)C(C)C)C(=O)N[C@@H](CCCCN)C(=O)O (H-SLKKVPALK-OH; N-terminus and C-terminus assumed)

SMILES: CSCC[C@H](NC(=O)[C@H](C)N)C(=O)N[C@H](C(=O)N[C@H](C(=O)N[C@@H](CO)C(=O)N[C@@H](CO)C(=O)N[C@@H](CO)C(=O)N[C@@H](CCC(N)=O)C(=O)N[C@@H](CCCCN)C(=O)O)[C@@H](C)O)[C@@H](C)O (H-AMTTSSSQK-OH; N-terminus and C-terminus assumed)
IC50 (HLA-A03.01 [1]; Observed Affinity (IC50): 8.3 nM
IC50 (HLA-A11.01 [6]): 162 nM

SMILES: CC[C@H](C)[C@H](NC(=O)[C@H](CCCCN)NC(=O)[C@H](CO)NC(=O)[C@@H](N)CCC(=O)O)C(=O)N[C@@H](CCSC)C(=O)N[C@@H](Cc1ccccc1)C(=O)N[C@@H](C)C(=O)N[C@H](C(=O)N[C@@H](CC(C)C)C(=O)O)[C@@H](C)O
detected by mass spectrometry (peptide eluted from HLA-peptide complexes) [7]: detected

Stability (T1/2 (h)) (HLA-A02.01 [3]): 0.6 h
Stability (T1/2 (h)) (HLA-B08.01): 0.4 h
SMILES: CC[C@H](C)[C@H](NC(=O)[C@H](CCCCN)NC(=O)[C@H](CO)NC(=O)[C@H](CCC(=O)O)NC(=O)[C@H](C)NC(=O)[C@H](CCCCN)NC(=O)[C@H](CC(C)C)NC(=O)[C@H](Cc1ccccc1)NC(=O)[C@H](CCSC)NC(=O)[C@@H](N)Cc1ccc(O)cc1)C(=O)O

SMILES: CC(C)[C@H](N)C(=O)N[C@H](C(=O)NCC(=O)N[C@@H](C)C(=O)N[C@@H](CS)C(=O)NCC(=O)N[C@H](C(=O)NCC(=O)N[C@@H](CCCCN)C(=O)O)C(C)C)C(C)C
Measured stability (HLA-A11.01 [5]): 10.0 h
Measured stability (HLA-A03.01 [2]; HLA Allele A03.01, time for half of the complexes to dissociate at 37° C.): 5.0 h

IC50 (HLA-A03.01 [1]; [8]): 15.7 nM
IC50 (HLA-A11.01 [6]; [9]): 15.8 nM
SMILES: CSCC[C@H](NC(=O)[C@H](C)NC(=O)[C@@H](N)CO)C(=O)N[C@H](C(=O)N[C@H](C(=O)N[C@@H](CO)C(=O)N[C@@H](CO)C(=O)N[C@@H](CO)C(=O)N[C@@H](CCC(N)=O)C(=O)N[C@@H](CCCCN)C(=O)O)[C@@H](C)O)[C@@H](C)O (H-SAMTTSSSQK-OH; N-terminus and C-terminus assumed)
